# Source: ChEMBL document CHEMBL5321234, “Discovery of Thieno[3,2-d]pyrimidine derivatives as potent and selective inhibitors of ataxia telangiectasia mutated and Rad3 related (ATR) kinase” (Eur J Med Chem, 2023)
# Experiments:
# [1] = Half life in ICR mouse at 10 mg/kg, po measured upto 24 hrs by LC-MS/MS analysis; assay type: ADME, organism-based; conditions: in vivo
# [2] = Cmax in ICR mouse at 1 mg/kg, iv measured upto 24 hrs by LC-MS/MS analysis; assay type: ADME, organism-based; set-up: time < 24 hrs, dose 1 mg/kg, route iv; conditions: in vivo
# [3] = biological target: Cytochrome P450 3A4 (Homo sapiens, UniProt P08684); test: Inhibition of CYP3A4 (unknown origin); assay type: ADME
# Cytochrome P450 3A4, sequence (P08684 whole entry): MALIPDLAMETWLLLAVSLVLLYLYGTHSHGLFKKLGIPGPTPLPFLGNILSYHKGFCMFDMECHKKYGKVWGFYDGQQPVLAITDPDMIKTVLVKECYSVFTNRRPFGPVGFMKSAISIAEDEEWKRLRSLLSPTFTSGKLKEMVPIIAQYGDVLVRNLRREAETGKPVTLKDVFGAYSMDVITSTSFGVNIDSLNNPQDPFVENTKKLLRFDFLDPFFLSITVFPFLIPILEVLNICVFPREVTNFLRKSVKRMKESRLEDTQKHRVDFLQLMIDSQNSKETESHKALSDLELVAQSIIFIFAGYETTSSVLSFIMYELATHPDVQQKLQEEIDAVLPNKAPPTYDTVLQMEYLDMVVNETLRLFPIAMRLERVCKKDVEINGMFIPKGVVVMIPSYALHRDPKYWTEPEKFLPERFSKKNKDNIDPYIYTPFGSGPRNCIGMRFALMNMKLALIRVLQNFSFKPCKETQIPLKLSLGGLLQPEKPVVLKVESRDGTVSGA
# [4] = Initial plasma concentration in ICR mouse at 1 mg/kg, iv measured upto 24 hrs by LC-MS/MS analysis; assay type: ADME, organism-based
# [5] = MRT (0 to t) in ICR mouse at 10 mg/kg, po measured upto 24 hrs by LC-MS/MS analysis; assay type: ADME, organism-based; conditions: in vivo
# [6] = biological target: T1, Cytochrome P450 1A2 (Homo sapiens, UniProt P05177); test: Inhibition of CYP1A2 (unknown origin); assay type: ADME
# T1 sequence (P05177 whole entry): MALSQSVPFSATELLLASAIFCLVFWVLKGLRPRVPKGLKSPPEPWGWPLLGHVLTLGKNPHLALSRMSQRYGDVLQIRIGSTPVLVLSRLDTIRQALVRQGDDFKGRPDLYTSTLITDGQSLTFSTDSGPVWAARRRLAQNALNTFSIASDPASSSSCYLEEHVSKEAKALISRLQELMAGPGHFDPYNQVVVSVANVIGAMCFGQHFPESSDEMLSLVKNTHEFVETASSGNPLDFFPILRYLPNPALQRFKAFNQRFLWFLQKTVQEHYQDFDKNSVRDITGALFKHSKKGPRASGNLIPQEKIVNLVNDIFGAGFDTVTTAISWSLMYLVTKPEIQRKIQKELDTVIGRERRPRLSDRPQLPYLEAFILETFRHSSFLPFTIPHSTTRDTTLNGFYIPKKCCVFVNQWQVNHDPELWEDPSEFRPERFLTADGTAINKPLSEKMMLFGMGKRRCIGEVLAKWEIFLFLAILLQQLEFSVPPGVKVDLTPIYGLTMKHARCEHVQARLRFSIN
# [7] = Clearance in ICR mouse at 1 mg/kg, iv measured upto 24 hrs by LC-MS/MS analysis; assay type: ADME, organism-based; conditions: in vivo, iv, 1 mg/kg, 24 h
# [8] = Inhibition of DNA-PK (unknown origin); set-up: species or system Homo sapiens
# [9] = Tmax in ICR mouse at 10 mg/kg, po measured upto 24 hrs by LC-MS/MS analysis; assay type: ADME, organism-based; conditions: in vivo
# [10] = Toxicity in po dosed ICR mouse assessed as mortality measured after 14 days; assay type: organism-based; conditions: in vivo, time 14 day
# [11] = biological target: Serine/threonine-protein kinase ATR (Homo sapiens, UniProt Q13535); test: Inhibition of ATR (unknown origin)
# Serine/threonine-protein kinase ATR, sequence (Q13535 whole entry): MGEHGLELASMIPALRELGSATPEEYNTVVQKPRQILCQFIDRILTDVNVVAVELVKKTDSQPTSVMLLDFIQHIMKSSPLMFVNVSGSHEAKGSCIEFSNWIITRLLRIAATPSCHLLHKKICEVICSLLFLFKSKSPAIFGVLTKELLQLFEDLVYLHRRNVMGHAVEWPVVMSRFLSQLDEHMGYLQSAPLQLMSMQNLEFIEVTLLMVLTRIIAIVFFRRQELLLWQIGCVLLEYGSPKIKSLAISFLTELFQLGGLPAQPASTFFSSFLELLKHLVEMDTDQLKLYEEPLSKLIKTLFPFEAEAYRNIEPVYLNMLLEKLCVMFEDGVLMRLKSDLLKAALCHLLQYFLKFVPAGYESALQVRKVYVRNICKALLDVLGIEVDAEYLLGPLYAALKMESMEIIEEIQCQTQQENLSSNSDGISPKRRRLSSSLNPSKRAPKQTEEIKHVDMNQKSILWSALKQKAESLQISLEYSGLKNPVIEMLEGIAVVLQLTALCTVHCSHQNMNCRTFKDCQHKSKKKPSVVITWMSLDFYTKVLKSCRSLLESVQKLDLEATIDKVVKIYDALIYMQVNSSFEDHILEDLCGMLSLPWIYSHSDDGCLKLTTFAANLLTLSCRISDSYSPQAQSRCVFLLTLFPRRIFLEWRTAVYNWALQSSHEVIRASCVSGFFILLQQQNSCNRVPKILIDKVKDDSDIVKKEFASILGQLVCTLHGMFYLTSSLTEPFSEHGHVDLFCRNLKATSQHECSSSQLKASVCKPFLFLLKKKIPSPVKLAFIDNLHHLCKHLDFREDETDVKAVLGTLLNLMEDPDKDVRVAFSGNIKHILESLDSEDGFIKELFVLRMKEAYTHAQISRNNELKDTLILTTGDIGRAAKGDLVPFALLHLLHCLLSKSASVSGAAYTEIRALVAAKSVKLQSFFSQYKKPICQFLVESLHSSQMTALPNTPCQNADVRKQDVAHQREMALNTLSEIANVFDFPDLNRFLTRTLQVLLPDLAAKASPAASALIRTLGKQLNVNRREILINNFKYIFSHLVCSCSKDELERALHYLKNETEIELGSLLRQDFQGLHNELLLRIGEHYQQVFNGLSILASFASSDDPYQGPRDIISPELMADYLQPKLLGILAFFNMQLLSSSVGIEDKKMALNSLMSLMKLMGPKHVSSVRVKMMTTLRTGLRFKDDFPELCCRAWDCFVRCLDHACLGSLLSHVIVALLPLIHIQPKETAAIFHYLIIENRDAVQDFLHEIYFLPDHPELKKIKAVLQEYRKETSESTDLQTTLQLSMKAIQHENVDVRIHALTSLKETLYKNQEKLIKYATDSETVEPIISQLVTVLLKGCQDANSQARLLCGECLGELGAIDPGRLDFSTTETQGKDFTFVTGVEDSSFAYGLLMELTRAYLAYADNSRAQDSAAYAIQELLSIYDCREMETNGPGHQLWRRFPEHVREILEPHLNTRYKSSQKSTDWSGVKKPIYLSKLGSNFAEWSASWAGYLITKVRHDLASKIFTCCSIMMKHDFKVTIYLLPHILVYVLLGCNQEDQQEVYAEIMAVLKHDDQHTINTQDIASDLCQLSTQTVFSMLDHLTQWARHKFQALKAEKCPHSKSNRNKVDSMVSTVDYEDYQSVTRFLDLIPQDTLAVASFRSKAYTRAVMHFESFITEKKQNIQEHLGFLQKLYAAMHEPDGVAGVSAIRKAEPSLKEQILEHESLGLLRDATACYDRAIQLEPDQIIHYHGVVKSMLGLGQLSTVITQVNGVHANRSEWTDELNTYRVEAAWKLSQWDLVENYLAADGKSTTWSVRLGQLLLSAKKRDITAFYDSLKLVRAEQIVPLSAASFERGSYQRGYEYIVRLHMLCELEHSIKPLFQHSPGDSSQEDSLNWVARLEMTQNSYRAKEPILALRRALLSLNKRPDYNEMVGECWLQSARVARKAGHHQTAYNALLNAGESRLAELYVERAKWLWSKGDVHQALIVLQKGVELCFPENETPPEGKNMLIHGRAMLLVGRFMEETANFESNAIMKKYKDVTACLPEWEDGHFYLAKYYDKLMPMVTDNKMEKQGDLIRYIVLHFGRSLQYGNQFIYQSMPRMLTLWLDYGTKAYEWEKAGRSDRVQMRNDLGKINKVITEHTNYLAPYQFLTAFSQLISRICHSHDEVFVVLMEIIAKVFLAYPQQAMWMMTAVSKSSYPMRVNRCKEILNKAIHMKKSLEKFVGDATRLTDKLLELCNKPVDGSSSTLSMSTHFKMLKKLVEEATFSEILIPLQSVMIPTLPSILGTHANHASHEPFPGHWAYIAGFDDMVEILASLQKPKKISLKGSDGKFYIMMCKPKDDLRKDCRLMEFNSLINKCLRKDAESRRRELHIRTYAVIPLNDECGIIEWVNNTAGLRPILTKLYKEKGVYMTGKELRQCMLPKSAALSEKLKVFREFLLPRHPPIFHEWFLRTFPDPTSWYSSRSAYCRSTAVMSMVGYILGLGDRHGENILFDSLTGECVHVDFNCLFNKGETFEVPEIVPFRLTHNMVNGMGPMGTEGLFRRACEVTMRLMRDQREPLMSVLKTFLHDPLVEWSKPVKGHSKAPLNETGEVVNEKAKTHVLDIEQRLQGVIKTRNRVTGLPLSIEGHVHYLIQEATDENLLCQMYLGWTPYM
# [12] = Oral bioavailability in ICR mouse at 10 mg/kg measured upto 24 hrs by LC-MS/MS analysis; assay type: ADME, organism-based; conditions: in vivo
# [13] = Toxicity in ICR mouse assessed as body weight change at 2000 mg/kg, po measured after 14 days; assay type: organism-based; conditions: in vivo, 336 h, time 14 day
# [14] = Toxicity in ICR male mouse assessed as mortality at 2000 mg/kg, po measured after 14 days; assay type: organism-based; conditions: in vivo, 336 h, time 14 day
# [15] = MRT (0 to t) in ICR mouse at 1 mg/kg, iv measured upto 24 hrs by LC-MS/MS analysis; assay type: ADME, organism-based; conditions: in vivo
# [16] = Acute toxicity in ICR mouse assessed as mortality at 2000 mg/kg, po measured after 14 days; assay type: organism-based; conditions: in vivo, 336 h, time 14 day
# [17] = tested on: HT-29; test: Antiproliferative activity against human HT-29 cells incubated for 72 hrs by CCK-8 assay; assay type: functional, cell-based; conditions: HT-29, 72 h
# [18] = AUC (0 to t) in ICR mouse at 1 mg/kg, iv measured upto 24 hrs by LC-MS/MS analysis; assay type: ADME, organism-based; set-up: dose 1 mg/kg, time < 24 hrs, route iv; conditions: in vivo
# [19] = tested on: LoVo; test: Antitumor activity against human LoVo cells xenografted in BALB/c mouse assessed as tumor growth inhibition at 50 mg/kg, po bid administered for 21 consecutive days relative to control; assay type: functional; conditions: 504 h, time 21 day, read-out: TGI
# [20] = tested on: LoVo; test: Antitumor activity against human LoVo cells xenografted in BALB/c mouse assessed as tumor growth inhibition at 50 mg/kg, po qd administered for 21 consecutive days relative to control; assay type: functional; conditions: 504 h, time 21 day, read-out: TGI
# [21] = biological target: Serine/threonine-protein kinase mTOR (Homo sapiens, UniProt P42345); test: Inhibition of mTOR (unknown origin)
# [22] = MRT (0 to infinity) in ICR mouse at 1 mg/kg, iv measured upto 24 hrs by LC-MS/MS analysis; assay type: ADME, organism-based; conditions: in vivo, iv, 1 mg/kg, 24 h
# [23] = Half life in ICR mouse at 1 mg/kg, iv measured upto 24 hrs by LC-MS/MS analysis; assay type: ADME, organism-based; conditions: in vivo
# [24] = Volume of distribution at steady state in ICR mouse at 1 mg/kg, iv measured upto 24 hrs by LC-MS/MS analysis; assay type: ADME, organism-based; conditions: in vivo, iv, 1 mg/kg, 24 h
# [25] = AUC (0 to t) in ICR mouse at 10 mg/kg, po measured upto 24 hrs by LC-MS/MS analysis; assay type: ADME, organism-based; set-up: dose 10 mg/kg, time < 24 hrs, route po; conditions: in vivo
# [26] = AUC (0 to infinity) in ICR mouse at 1 mg/kg, iv measured upto 24 hrs by LC-MS/MS analysis; assay type: ADME, organism-based; set-up: dose 1 mg/kg, time < 24 hrs, route iv; conditions: in vivo
# [27] = tested on: HT-29; test: Antiproliferative activity against human HT-29 cells in presence of AZD1390 incubated for 72 hrs by CCK-8 assay; assay type: functional, cell-based; conditions: HT-29, 72 h
# [28] = MRT (0 to infinity) in ICR mouse at 10 mg/kg, po measured upto 24 hrs by LC-MS/MS analysis; assay type: ADME, organism-based; conditions: in vivo
# [29] = Tmax in ICR mouse at 1 mg/kg, iv measured upto 24 hrs by LC-MS/MS analysis; assay type: ADME, organism-based; conditions: in vivo
# [30] = Cmax in ICR mouse at 10 mg/kg, po measured upto 24 hrs by LC-MS/MS analysis; assay type: ADME, organism-based; set-up: time < 24 hrs, dose 10 mg/kg, route po; conditions: in vivo
# [31] = AUC (0 to infinity) in ICR mouse at 10 mg/kg, po measured upto 24 hrs by LC-MS/MS analysis; assay type: ADME, organism-based; set-up: dose 10 mg/kg, time < 24 hrs, route po; conditions: in vivo
# [32] = tested on: LoVo; test: Antiproliferative activity against human LoVo cells incubated for 72 hrs by CCK-8 assay; assay type: functional, cell-based
smiles,measurement,setting,value
CNc1nc2ccccc2n1-c1nc(N2CCOC[C@H]2C)c2scc(S(C)(=O)=O)c2n1,half-life,[1],5.06 h
same,Cmax,[2],1140 ng/mL
same,inhibition (INH),[3],Not Active
same,C0 at 24 h,[4],1310 ng/mL
same,MRT last at 24 h,[5],5.3 h
same,inhibition (INH),[6],Not Active
same,CL,[7],17.35 mL/min/kg
same,IC50,[8],25.3 nM
same,Tmax,[9],0.25 h
same,LD50 at 336 h,[10],2000 mg/kg
same,IC50,[11],1.5 nM
same,bioavailability,[12],46%
same,Activity,[13],Non-Toxic
same,Activity,[14],Toxic
same,MRT last at 24 h,[15],0.89 h
same,Activity,[16],Toxic
same,IC50,[17],161 nM
same,AUC(0-t) at 24 h,[18],954 ng·h/mL
same,inhibition in vivo at 50 mg/kg,[19],55%
same,inhibition in vivo at 50 mg/kg,[20],32%
same,IC50,[21],58.8 nM
same,MRT,[22],0.97 h
same,half-life,[23],1.56 h
same,Vdss,[24],2.371 L/kg
same,AUC(0-t) at 24 h,[25],4300 ng·h/mL
same,AUC(0-inf),[26],962 ng·h/mL
same,IC50,[27],3 nM
same,MRT inf,[28],6.2 h
same,Tmax,[29],4.8 min
same,Cmax,[30],1270 ng/mL
same,AUC(0-inf),[31],4420 ng·h/mL
same,IC50,[32],73 nM
